In patent US8716287B2, “Pharmaceutical compounds” (Sentinel Oncology Limited, priority 2010, dated 2014):
Like-named read-outs stand apart in the source and are kept apart here.

How the values were obtained:
HT29 = assay: Potentiation assay with DNA damaging agents in HT29 cells; assay type: cell-based; details: HT29 human colon cancer; gemcitabine; Example 4 at 4 μM
Protocol: (§1) The following protocol was used:
(§2) (a) HT29 cells were seeded in 96-well plates at a concentration of 3000 cells per well and allowed to adhere overnight prior to addition of compound or vehicle control.
(§3) (b) SN38 was prepared from a 10 mM DMSO stock to give a final concentration range of 1 μM, 300 nM, 100 nM, 30 nM, 10 nM, 3 nM, 1 nM, and vehicle control.
(§4) (c) Test compounds were prepared from 10 mM DMSO stocks to typically give a final concentration range of 3 μM, 1 μM, 0.3 μM. 0.1 μM, 0.03 μM and vehicle control. The final DMSO content was 0.4%.
(§5) (d) Test compounds were incubated with the cells for 72 h at 37° C. 5% CO2 in a humidified atmosphere.
(§6) (e) Alamar blue 10% (v/v) was then added and incubated for a further 6 h, and fluorescent product detected using the BMG FLUOstar plate reader.
(§7) (f) Data were analysed using a 4-parameter logistic equation in GraphPad Prism.
Sensitisation is determined by the enhancement in IC50 of SN38 by the addition of the Chk-1 kinase inhibitor. In the protocol described above, the IC50 for SN-38 is determined the presence of varying doses of the Chk-1 inhibitor. The fold shift represents a decrease in IC50 for SN-38 at a dose of Chk-1 inhibitor that has no effect by itself. […]

Chk-1 kinase = Chk-1 kinase (Homo sapiens (Human), UniProt O14757); assay: Chk-1 kinase inhibiting activity (33P-ATP filter assay, CHKtide substrate); assay type: biochemical
HT29 cells = assay: Sensitisation of HT29 cells to SN38 (Alamar blue cell growth); assay type: cell-based, human; details: HT29 cells; test compound at 1.25 μM
SW620 = assay: Potentiation assay with DNA damaging agents in SW620 cells; assay type: cell-based; details: SW620 human colon adenocarcinoma
Protocol: as §1, §2, §3, §4, §5, §6, §7
(§8) Sensitisation is determined by the enhancement in IC50 of SN38 by the addition of the Chk-1 kinase inhibitor. In the protocol described above, the IC50 for SN-38 is determined the presence of varying doses of the Chk-1 inhibitor. The fold shift represents a decrease in IC50 for SN-38 at a dose of Chk-1 inhibitor that has no effect by itself.
(§9) Using the general protocol set out in Example 67, the compound of Example 4 was tested in potentiation assays against a variety of cell lines in combination with several different DNA damaging anti-cancer agents.

Calu 6 = assay: Potentiation assay with DNA damaging agents in Calu 6 cells; assay type: cell-based; details: Calu 6 human lung adenocarcinoma, Example 4 at 8 μM
Protocol: as §1, §2, §3, §4, §5, §6, §7, §8, §9

Chk-1 kinase, sequence (O14757 whole entry): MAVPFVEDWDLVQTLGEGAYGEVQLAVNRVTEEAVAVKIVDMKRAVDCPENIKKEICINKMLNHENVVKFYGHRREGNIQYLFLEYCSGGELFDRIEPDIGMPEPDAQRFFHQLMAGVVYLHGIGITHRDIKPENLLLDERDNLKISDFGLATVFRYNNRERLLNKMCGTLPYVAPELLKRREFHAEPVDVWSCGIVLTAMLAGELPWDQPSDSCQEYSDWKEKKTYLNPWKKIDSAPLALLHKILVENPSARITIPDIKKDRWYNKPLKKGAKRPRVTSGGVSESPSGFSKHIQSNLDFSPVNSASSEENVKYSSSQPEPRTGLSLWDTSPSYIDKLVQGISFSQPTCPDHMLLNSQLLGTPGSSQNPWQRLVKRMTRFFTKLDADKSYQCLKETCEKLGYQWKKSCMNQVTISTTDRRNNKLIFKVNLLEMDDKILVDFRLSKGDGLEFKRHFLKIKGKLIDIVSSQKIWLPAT

With N#Cc1cnc(NC(=O)Nc2ccc(CCNCc3ccc(F)cc3)c(Cl)c2)cn1 [Example 4, 1-{3-Chloro-4-[2-(4-fluoro-benzylamino)-ethyl]-phenyl}-3-(5-cyano-pyrazin-2-yl)-urea] as the molecule, how does the Potentiation factor (HT29) read?
The Potentiation factor was 18.

What about the IC50 (Chk-1 kinase; Chk-1 kinase, Table 3, read-out: IC50) of the same molecule?
Its IC50 is 0.015 µM.

And the IC50 (Chk-1 kinase; ranges given, read-out: IC50 values against Chk-1 kinase)?
Its IC50 is 0.01 to 0.1 µM.

What about the “fold shift in the IC50 value of SN38” value (HT29 cells) of the same molecule?
The value was “three”.

What about the Potentiation factor (SW620; SN-38, Example 4 at 4 μM) of the same molecule?
The Potentiation factor was 16.4.

What about the Potentiation factor (SW620; etoposide, Example 4 at 1 μM) of the same molecule?
Its Potentiation factor is 2.6.

What about the Potentiation factor (SW620; gemcitabine, Example 4 at 2 μM) of the same molecule?
Its Potentiation factor is 2.5.

What about the Potentiation factor (Calu 6; SN-38) of the same molecule?
The Potentiation factor was 3.7.

What about the Potentiation factor (Calu 6; etoposide) of the same molecule?
Its Potentiation factor is 7.6.

And the Potentiation factor (Calu 6; gemcitabine)?
Its Potentiation factor is 6.1.
